# What was measured:
# Type in all cases: functional, cell-based
# [1] = target: T1, Solute carrier family 22 member 6 (Homo sapiens, UniProt Q4U2R8); experiment: TP_TRANSPORTER: inhibition of PAH uptake (Furosemide: 200 uM) in OAT1-expressing HeLa cells
# T1 sequence (Q4U2R8 whole entry): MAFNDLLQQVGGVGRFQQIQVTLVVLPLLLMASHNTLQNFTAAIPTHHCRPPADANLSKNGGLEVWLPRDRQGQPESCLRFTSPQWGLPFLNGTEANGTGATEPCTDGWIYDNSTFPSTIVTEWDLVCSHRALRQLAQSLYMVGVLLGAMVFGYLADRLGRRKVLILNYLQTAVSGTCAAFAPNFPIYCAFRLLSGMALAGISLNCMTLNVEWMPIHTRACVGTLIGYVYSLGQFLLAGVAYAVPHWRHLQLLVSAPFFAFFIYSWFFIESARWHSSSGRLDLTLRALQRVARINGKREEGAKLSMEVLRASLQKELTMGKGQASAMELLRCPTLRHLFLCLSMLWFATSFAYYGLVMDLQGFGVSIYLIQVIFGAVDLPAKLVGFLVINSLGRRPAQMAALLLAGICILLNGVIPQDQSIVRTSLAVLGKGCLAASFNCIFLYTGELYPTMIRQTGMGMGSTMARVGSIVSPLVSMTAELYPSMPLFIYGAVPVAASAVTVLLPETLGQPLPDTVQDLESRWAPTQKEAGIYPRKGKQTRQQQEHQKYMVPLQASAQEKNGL
# [2] = target: T1, Solute carrier family 22 member 6; experiment: TP_TRANSPORTER: inhibition of PAH uptake (Anandamide: 100 uM) in OAT1-expressing HeLa cells
# [3] = target: T1, Solute carrier family 22 member 6; experiment: TP_TRANSPORTER: inhibition of PAH uptake (Indomethacin: 200 uM) in OAT1-expressing HeLa cells
# [4] = target: T1, Solute carrier family 22 member 6; experiment: TP_TRANSPORTER: inhibition of PAH uptake (alpha,-KG: 200 uM) in OAT1-expressing HeLa cells
# [5] = target: T1, Solute carrier family 22 member 6; experiment: TP_TRANSPORTER: uptake in OAT1-expressing HeLa cells
# [6] = target: T1, Solute carrier family 22 member 6; experiment: TP_TRANSPORTER: inhibition of PAH uptake (PAH: 0.4 uM, Phenylbutazone: 200 uM) in OAT1-expressing HeLa cells
structure (smiles),measurement,setting,value
NS(=O)(=O)c1cc(C(=O)O)c(NCc2ccco2)cc1Cl [FUROSEMIDE],Activity,[1],inhibitor [(at a rough estimate) 50 % of control]
CCCCC/C=C\C/C=C\C/C=C\C/C=C\CCCC(=O)NCCO [ANANDAMIDE],Activity,[2],is not an inhibitor [-]
COc1ccc2c(c1)c(CC(=O)O)c(C)n2C(=O)c1ccc(Cl)cc1 [INDOMETHACIN],Activity,[3],inhibitor [(at a rough estimate) 20 % of control]
O=C(O)CCC(=O)C(=O)O [ALPHA-KETOGLUTARIC ACID],Activity,[4],inhibitor [(at a rough estimate) 35 % of control]
same,Activity,[5],substrate [+]
O=C1OC2(c3ccc(O)cc3Oc3cc(O)ccc32)c2ccccc21 [FLUORESCEIN],Activity,[6],inhibitor [(at a rough estimate) 20 % of control]

# From ChEMBL document CHEMBL2074412, “Cloning of the human kidney PAH transporter: narrow substrate specificity and regulation by protein kinase C” (Am J Physiol, 1999)
